Experimental data: US20180168208A1 (priority 2014, published 2018)

Each compound was assayed against T1R1/T1R3 receptor (Felis catus, UniProt E3UMS2) (assay: cell-based). Conditions: + Alanine (20 nM); Table 17.
Format: cell-based
Source text: HEK293 cells that stably express T1R3 and inducibly express T1R1 were exposed to transmembrane compounds alone or in combination with one or more amino acids and/or one or more nucleotides to activate the umami receptor. Activation of the T1R1/T1R3 receptor was detected by a change in intracellular calcium levels using a calcium sensitive fluorescent dye. Cells that express T1R3 but not T1R1 were used as a control. A FLIPR® Tetra or a FlexStation® 3 was used for data capture.
In each experiment, serial dilutions of up to 10 mM of the transmembrane compound were added to the T1R1/T1R3-expressing cells.

Going from CCC(CC)NC(=O)c1ccc(OC)c(OC)c1 [3,4-dimethoxy-N-(pentan-3-yl)benzamide] to CCC(CC)NC(=O)c1ccc(C)c(C)c1 [3,4-dimethyl-N-(pentan-3-yl)benzamide], the “Thres +Alanine” value rises from 0.3 mM to 3 mM (10-fold).

Going from COc1ccc(C(=O)NC(C)c2ccccc2)cc1C (stereo not shown) [4-methoxy-3-methyl-N-(1-phenylethyl)benzamide] to CCCC(C)NC(=O)c1ccc(OC)c(C)c1 (stereo not shown) [4-methoxy-3-methyl-N-(pentan-2-yl)benzamide], the “Thres +Alanine” value falls from 3 mM to 0.050 mM (60-fold).

Same assay, conditions: + Alanine; Table 17

CCC(CC)NC(=O)c1ccc(OC)c(OC)c1 [3,4-dimethoxy-N-(pentan-3-yl)benzamide] was tested, and the “Max resp % of IMP + Alanine” value was 43.9 % of IMP.
With CCC(CC)NC(=O)c1ccc(C)c(C)c1 [3,4-dimethyl-N-(pentan-3-yl)benzamide] the “Max resp % of IMP + Alanine” value was 97.8 % of IMP.
COc1ccc(C(=O)NC(C)c2ccccc2)cc1C (stereo not shown) [4-methoxy-3-methyl-N-(1-phenylethyl)benzamide] was tested, and the “Max resp % of IMP + Alanine” value was 41.0 % of IMP.
In the case of CCCC(C)NC(=O)c1ccc(OC)c(C)c1 (stereo not shown) [4-methoxy-3-methyl-N-(pentan-2-yl)benzamide], the “Max resp % of IMP + Alanine” value is reported as 126.0 % of IMP.

Going from CCC(CC)NC(=O)c1ccc(OC)c(OC)c1 [3,4-dimethoxy-N-(pentan-3-yl)benzamide] to CCC(CC)NC(=O)c1ccc(C)c(C)c1 [3,4-dimethyl-N-(pentan-3-yl)benzamide], the “Max resp ΔF/F +Alanine” value rises from 0.545 to 1.2150.

First: COc1ccc(C(=O)NC(C)c2ccccc2)cc1C (stereo not shown) [4-methoxy-3-methyl-N-(1-phenylethyl)benzamide]
Second: CCCC(C)NC(=O)c1ccc(OC)c(C)c1 (stereo not shown) [4-methoxy-3-methyl-N-(pentan-2-yl)benzamide]
The “Max resp ΔF/F +Alanine” value of the first is lower: 0.51 for the first, 1.5650 for the second.

Same assay, conditions: + Alanine; Table 17; read-out: EC50 + Alanine

CCC(CC)NC(=O)c1ccc(OC)c(OC)c1 [3,4-dimethoxy-N-(pentan-3-yl)benzamide] and CCC(CC)NC(=O)c1ccc(C)c(C)c1 [3,4-dimethyl-N-(pentan-3-yl)benzamide] cannot be ordered by EC50: over 10000 µM for the first, over 3000 µM for the second.

For COc1ccc(C(=O)NC(C)c2ccccc2)cc1C (stereo not shown) [4-methoxy-3-methyl-N-(1-phenylethyl)benzamide], the EC50 was over 3000 µM.

Same assay, conditions: + IMP (0.2 mM); Table 17

With CCC(CC)NC(=O)c1ccc(OC)c(OC)c1 [3,4-dimethoxy-N-(pentan-3-yl)benzamide] the “Max resp % of ALa + IMP” value was 81.0 % of ALa.
CCC(CC)NC(=O)c1ccc(C)c(C)c1 [3,4-dimethyl-N-(pentan-3-yl)benzamide] was tested, and the “Max resp % of ALa + IMP” value was 125.7 % of ALa.
With COc1ccc(C(=O)NC(C)c2ccccc2)cc1C (stereo not shown) [4-methoxy-3-methyl-N-(1-phenylethyl)benzamide] the “Max resp % of ALa + IMP” value was 95.6 % of ALa.
For CCCC(C)NC(=O)c1ccc(OC)c(C)c1 (stereo not shown) [4-methoxy-3-methyl-N-(pentan-2-yl)benzamide], the “Max resp % of ALa + IMP” value was 128.9 % of ALa.

CCC(CC)NC(=O)c1ccc(OC)c(OC)c1 [3,4-dimethoxy-N-(pentan-3-yl)benzamide] and CCC(CC)NC(=O)c1ccc(C)c(C)c1 [3,4-dimethyl-N-(pentan-3-yl)benzamide] are within 1.5-fold of each other in “Thres + IMP” value: 0.5 mM for the first, 0.525 mM for the second.

First: COc1ccc(C(=O)NC(C)c2ccccc2)cc1C (stereo not shown) [4-methoxy-3-methyl-N-(1-phenylethyl)benzamide]
Second: CCCC(C)NC(=O)c1ccc(OC)c(C)c1 (stereo not shown) [4-methoxy-3-methyl-N-(pentan-2-yl)benzamide]
The “Thres + IMP” value of the first is 14-fold higher: 0.35 mM for the first, 0.025 mM for the second.

Same assay, conditions: +Alanine (20 mM); Table 18

Compared with CCC(CC)NC(=O)c1ccc(OC)c(OC)c1 [3,4-dimethoxy-N-(pentan-3-yl)benzamide], CCC(CC)NC(=O)c1ccc(C)c(C)c1 [3,4-dimethyl-N-(pentan-3-yl)benzamide] is higher in “Max resp ΔF/F +Alanine” value: 0.545 for the first, 1.2150 for the second.

Going from COc1ccc(C(=O)NC(C)c2ccccc2)cc1C (stereo not shown) [4-methoxy-3-methyl-N-(1-phenylethyl)benzamide] to CCCC(C)NC(=O)c1ccc(OC)c(C)c1 (stereo not shown) [4-methoxy-3-methyl-N-(pentan-2-yl)benzamide], the “Max resp ΔF/F +Alanine” value rises from 0.51 to 1.5650.

Going from CCC(CC)NC(=O)c1ccc(OC)c(OC)c1 [3,4-dimethoxy-N-(pentan-3-yl)benzamide] to CCC(CC)NC(=O)c1ccc(C)c(C)c1 [3,4-dimethyl-N-(pentan-3-yl)benzamide], the “Thres +Alanine” value rises from 0.3 mM to 3 mM (10-fold).

Going from COc1ccc(C(=O)NC(C)c2ccccc2)cc1C (stereo not shown) [4-methoxy-3-methyl-N-(1-phenylethyl)benzamide] to CCCC(C)NC(=O)c1ccc(OC)c(C)c1 (stereo not shown) [4-methoxy-3-methyl-N-(pentan-2-yl)benzamide], the “Thres +Alanine” value falls from 3 mM to 0.050 mM (60-fold).

Same assay, conditions: +Alanine (20 mM); Table 18; read-out: EC50 +Alanine

CCC(CC)NC(=O)c1ccc(OC)c(OC)c1 [3,4-dimethoxy-N-(pentan-3-yl)benzamide] and CCC(CC)NC(=O)c1ccc(C)c(C)c1 [3,4-dimethyl-N-(pentan-3-yl)benzamide] cannot be ordered by EC50: over 10000 µM for the first, over 3000 µM for the second.

Compared with COc1ccc(C(=O)NC(C)c2ccccc2)cc1C (stereo not shown) [4-methoxy-3-methyl-N-(1-phenylethyl)benzamide], CCCC(C)NC(=O)c1ccc(OC)c(C)c1 (stereo not shown) [4-methoxy-3-methyl-N-(pentan-2-yl)benzamide] is lower in EC50: over 3000 µM for the first, 200 µM for the second. The second is the more potent here.

Same assay, conditions: +IMP (0.2 mM); Table 18

For CCC(CC)NC(=O)c1ccc(OC)c(OC)c1 [3,4-dimethoxy-N-(pentan-3-yl)benzamide], the “Max resp % of Ala +IMP” value was 81.0 % of Ala.
For CCC(CC)NC(=O)c1ccc(C)c(C)c1 [3,4-dimethyl-N-(pentan-3-yl)benzamide], the “Max resp % of Ala +IMP” value was 125.7 % of Ala.
In the case of COc1ccc(C(=O)NC(C)c2ccccc2)cc1C (stereo not shown) [4-methoxy-3-methyl-N-(1-phenylethyl)benzamide], the “Max resp % of Ala +IMP” value is reported as 95.6 % of Ala.
For CCCC(C)NC(=O)c1ccc(OC)c(C)c1 (stereo not shown) [4-methoxy-3-methyl-N-(pentan-2-yl)benzamide], the “Max resp % of Ala +IMP” value was 128.9 % of Ala.

Compared with CCC(CC)NC(=O)c1ccc(OC)c(OC)c1 [3,4-dimethoxy-N-(pentan-3-yl)benzamide], CCC(CC)NC(=O)c1ccc(C)c(C)c1 [3,4-dimethyl-N-(pentan-3-yl)benzamide] is higher in “Max resp ΔF/F +IMP” value: 0.9975 for the first, 1.5475 for the second.

Going from COc1ccc(C(=O)NC(C)c2ccccc2)cc1C (stereo not shown) [4-methoxy-3-methyl-N-(1-phenylethyl)benzamide] to CCCC(C)NC(=O)c1ccc(OC)c(C)c1 (stereo not shown) [4-methoxy-3-methyl-N-(pentan-2-yl)benzamide], the “Max resp ΔF/F +IMP” value rises from 1.1775 to 1.5875.

Same assay, conditions: EC50 + IMP, + IMP (0.2 mM); Table 17

CCC(CC)NC(=O)c1ccc(OC)c(OC)c1 [3,4-dimethoxy-N-(pentan-3-yl)benzamide] and CCC(CC)NC(=O)c1ccc(C)c(C)c1 [3,4-dimethyl-N-(pentan-3-yl)benzamide] are within 1.5-fold of each other in EC50: 2000 µM for the first, 2100 µM for the second.

Compared with COc1ccc(C(=O)NC(C)c2ccccc2)cc1C (stereo not shown) [4-methoxy-3-methyl-N-(1-phenylethyl)benzamide], CCCC(C)NC(=O)c1ccc(OC)c(C)c1 (stereo not shown) [4-methoxy-3-methyl-N-(pentan-2-yl)benzamide] is 14-fold lower in EC50: 1400 µM for the first, 100 µM for the second. The second is the more potent here.

Same assay, conditions: EC50 +Alanine + IMP, +Alanine (20 mM) + IMP (0.2 mM); Table 18

Going from CCC(CC)NC(=O)c1ccc(OC)c(OC)c1 [3,4-dimethoxy-N-(pentan-3-yl)benzamide] to CCC(CC)NC(=O)c1ccc(C)c(C)c1 [3,4-dimethyl-N-(pentan-3-yl)benzamide], the EC50 falls from over 3000 µM to 1700 µM. The second is the more potent here.

Compared with COc1ccc(C(=O)NC(C)c2ccccc2)cc1C (stereo not shown) [4-methoxy-3-methyl-N-(1-phenylethyl)benzamide], CCCC(C)NC(=O)c1ccc(OC)c(C)c1 (stereo not shown) [4-methoxy-3-methyl-N-(pentan-2-yl)benzamide] is 40-fold lower in EC50: 1200 µM for the first, 30 µM for the second.

Same assay, conditions: EC50 +IMP, +IMP (0.2 mM); Table 18

CCC(CC)NC(=O)c1ccc(OC)c(OC)c1 [3,4-dimethoxy-N-(pentan-3-yl)benzamide] and CCC(CC)NC(=O)c1ccc(C)c(C)c1 [3,4-dimethyl-N-(pentan-3-yl)benzamide] are within 1.5-fold of each other in EC50: 2000 µM for the first, 2100 µM for the second.

Compared with COc1ccc(C(=O)NC(C)c2ccccc2)cc1C (stereo not shown) [4-methoxy-3-methyl-N-(1-phenylethyl)benzamide], CCCC(C)NC(=O)c1ccc(OC)c(C)c1 (stereo not shown) [4-methoxy-3-methyl-N-(pentan-2-yl)benzamide] is 14-fold lower in EC50: 1400 µM for the first, 100 µM for the second. The second is the more potent here.

Same assay, conditions: compound alone in buffer; Table 17; read-out: EC50 + buffer (alone)

CCC(CC)NC(=O)c1ccc(OC)c(OC)c1 [3,4-dimethoxy-N-(pentan-3-yl)benzamide] and CCC(CC)NC(=O)c1ccc(C)c(C)c1 [3,4-dimethyl-N-(pentan-3-yl)benzamide] cannot be ordered by EC50: over 10000 µM for the first, over 3000 µM for the second.

Compared with COc1ccc(C(=O)NC(C)c2ccccc2)cc1C (stereo not shown) [4-methoxy-3-methyl-N-(1-phenylethyl)benzamide], CCCC(C)NC(=O)c1ccc(OC)c(C)c1 (stereo not shown) [4-methoxy-3-methyl-N-(pentan-2-yl)benzamide] is lower in EC50: over 3000 µM for the first, 400 µM for the second. The second is the more potent here.

Same assay, conditions: compound alone in buffer; Table 18; read-out: EC50 +buffer (alone)

CCC(CC)NC(=O)c1ccc(OC)c(OC)c1 [3,4-dimethoxy-N-(pentan-3-yl)benzamide] and CCC(CC)NC(=O)c1ccc(C)c(C)c1 [3,4-dimethyl-N-(pentan-3-yl)benzamide] cannot be ordered by EC50: over 10000 µM for the first, over 3000 µM for the second.

Going from COc1ccc(C(=O)NC(C)c2ccccc2)cc1C (stereo not shown) [4-methoxy-3-methyl-N-(1-phenylethyl)benzamide] to CCCC(C)NC(=O)c1ccc(OC)c(C)c1 (stereo not shown) [4-methoxy-3-methyl-N-(pentan-2-yl)benzamide], the EC50 falls from over 3000 µM to 400 µM. The second is the more potent here.

Same assay, conditions: read-out: EC50 + Alanine

In the case of CCCC(C)NC(=O)c1ccc(OC)c(C)c1 (stereo not shown) [4-methoxy-3-methyl-N-(pentan-2-yl)benzamide], the EC50 is reported as 200 µM.
